According to patent publication US6417159B1 (Queen's University at Kingston, priority 1996, dated 2002):

How the values were obtained:
[1] = test system: PC12^nnr5 cells; test: Acid phosphatase assay of cell survival, PC12nnr5 cells; format: cell-based, rat; conditions: PC12nnr5 (low-TrkA), serum-free conditions
Description: This is a colorimetric assay which measures the lysosomal enzyme acid phosphatase to determine cell number (Connolly et al., 1986) modified by Ueda et al. (1994) for use with cultured neuronal cells. Medium was removed gently from PC12 or PC12^nnr5 cells cultured in 96 well plates and well were washed once with 200 μl PBS. Then 100 μl of buffer containing 0.1M sodium acetate pH 5.5, 0.1% TRITON™ X-100, and 10 mM p-nitrophenyl phosphate (Sigma 104 phosphatase substrate) was added to each well. Plates were placed in a 37° C., 5% CO2 incubator for 3 hours. The reaction was stopped by the addition of 10 μl/well of 1N sodium hydroxide and the colour development measured at 405 nm using a microplate reader (Titertek). The first column on each plate contained no cells (buffer only) and was used as a blank. The relationship between cell number and enzyme activity was linear over the range 1000 to 15,000 cells.
To exclude the possibility that the effects of R3 on neurite growth in the experiments described above were indirect and mediated by an influence on cell survival, PC12 and PC12^nnr5 cells were exposed to serum free conditions in the absence and presences of NGF, and in the absence and presence of R3. […] Nor was there any difference in NGF-mediated survival whether R3 exposure occurred before or at the same time as NGF exposure. […]

[2] = test system: TrkA; test: NGF-mediated TrkA tyrosine phosphorylation in PC12 cells; format: cell-based, rat; conditions: prior to or at the time of NGF exposure
Description: FIG. 7B illustrates the influence of peptide R3 on TrkA phosphorylation. PC12 cells were treated with R3 for 30 min or 24 h and suspended in HKR buffer at a concentration of 10^7·ml^−1. NGF (50 ng·ml^−1) was added where indicated and samples incubated for 15 min at 37° C. Cells were subsequently harvested by centrifugation and the pellets dissolved in lysis buffer and immunoprecipitated for TrkA as described. Immunoprecipitated proteins were separated using 7.5% polyacrylamide gels (Laemmli) and transblotted to PVDF membrane. The membrane was processed for anti-phosphotyrosine with HRP-conjugated antibody RC-20 as described by the manufacture's literature (Transduction Laboratories Ltd.).
TrkA phosphorylation was performed by a modification of the method of Kaplan et al. (1991 a and b). PC12 cells were harvested as described and suspended at a concentration of 10^7 ml in HKR buffer. NGF (100 ng·ml^−1) was added and the cell suspension was incubated for 30 min at 37° C. and pelleted at 4° C. The cells were solublized with lysis buffer, and TrkA protein was immunoprecipitated as described. Proteins were fractionated by 7.5% SDS-PAGE, and transferred to nitrocellulose for immunoblot analysis as described (Harlow and Lane, 1988). Phosphoproteins were visualized using anti-phosphotyrosine clone 4G10 (UBI) as described in the supplier's product literature.

In the case of LDALLAALRRIQR [R3], the “Influence on NGF-mediated cell survival, in words” value [1] is reported as “no influence on NGF-mediated survival” and the “Influence on NGF-mediated tyrosine phosphorylation of TrkA, in words” value [2] is reported as “did not consistently influence”.
